# Laboratory results: patent US20210087188A1, “5,6-DIHYDRO-1 1H-INDOLO{2,3-B}QUINOLIN- 11-ONE COMPOUNDS AS ALK INHIBITORS” (THE REGENTS OF THE UNIVERSITY OF MICHIGAN, priority 2018, published 2021)
# Where a name gives a salt, the structure may show the parent alone.
# Target: T1, wild-type human ALK protein (cytoplasmic domain, amino acid 1058-1620, N-terminal GST-fusion) (Homo sapiens, UniProt Q9UM73)
# T1 construct: The cytoplasmic domain (amino acid 1058-1620) of wild-type human ALK protein; GST (N); purchased Carna Biosciences, Inc (Japan)
# Test: Enzymatic inhibition assay (time-resolved fluorescence, peptide substrate phosphorylation)
# Assay type: biochemical
# Conditions: ATP 100 μM, 30 min pre-incubation, 90 min reaction, read-out: WT IC50
# Experimental: Enzymatic Inhibition Assay
# The cytoplasmic domain (amino acid 1058-1620) of wild-type human ALK protein expressed as N-terminal GST-fusion protein was purchased from Carna Biosciences, Inc (Japan). Compound solution (2.5 μL) and 5 μL of protein solution were added into a black low volume 384 well microtiter plate which was incubated for 30 minutes with gentle shaking at room temperature, followed by adding 2.5 μL of fluorescently labeled peptide substrate and ATP mixture solution. The kinase reaction was performed in 50 mM HEPES (pH 7.5) with 1 mM EGTA, 1 mM MgCl2, and 2 mM DTT, 0.01% Tween-20 added immediately prior to the assay. Final concentrations of ATP, substrates, and DMSO were 100 μM, 20 nM, and 0.5%, respectively. The final ALK concentrations were […]. The reaction was allowed to proceed for 90 minutes in the dark with gentle shaking at rt after which 10 μL of 20 mM EDTA and 2 nM Eu-W1024 anti-phosphotyrosine antibody (PT66) mixture solution in the detection buffer from the manufacturer was added to terminate the reaction and detect the phosphorylation of the peptide substrate. The final mixture was incubated in the dark for 1 h before the plate was read on a Tecan Infinite M-1000 multi-mode plate reader (Tecan, Durham N.C.) with an excitation wavelength of 320 nm. Emission intensities were measured at both 620 and 665 nm with the intensity ratio between 665 and 620 nm corresponding to the peptide substrate phosphorylation. IC50 values of inhibitors were obtained by fitting the ratio of 665/620 nm vs inhibitor concentrations in a sigmoidal dose-response curve (variable slope) with a non-linear regression.
# T1 sequence (Q9UM73 1058-1620): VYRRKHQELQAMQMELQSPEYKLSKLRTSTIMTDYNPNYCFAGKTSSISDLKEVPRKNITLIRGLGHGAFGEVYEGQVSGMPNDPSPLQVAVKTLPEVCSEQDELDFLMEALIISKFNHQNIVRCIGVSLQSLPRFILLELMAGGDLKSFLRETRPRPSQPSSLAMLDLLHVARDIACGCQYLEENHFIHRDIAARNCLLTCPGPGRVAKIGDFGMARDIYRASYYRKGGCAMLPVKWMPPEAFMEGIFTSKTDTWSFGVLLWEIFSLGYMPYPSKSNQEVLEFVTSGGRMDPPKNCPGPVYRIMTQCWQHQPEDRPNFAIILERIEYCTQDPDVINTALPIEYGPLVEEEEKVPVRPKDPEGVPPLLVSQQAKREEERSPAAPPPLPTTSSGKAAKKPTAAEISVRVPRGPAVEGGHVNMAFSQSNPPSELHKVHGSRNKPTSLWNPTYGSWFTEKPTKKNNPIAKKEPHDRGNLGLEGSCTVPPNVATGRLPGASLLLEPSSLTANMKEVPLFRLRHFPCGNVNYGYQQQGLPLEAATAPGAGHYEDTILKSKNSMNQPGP
row,SMILES,IC50
1,"CC(C)Oc1c(N2CCC(N3CCOCC3)CC2)cc2c(c1F)c(=O)c1c3ccc(C#N)cc3[nH]c1n2C(C)C [Cpd. No. 1, 1-fluoro-2-isopropoxy-5-isopropyl-3-(4-morpholinopiperidin-1-yl)-11-oxo-6,11-dihydro-5H-indolo[2,3-b]quinoline-8-carbonitrile]",2.4 nM
2,"CC(C)Oc1c(N2CCN(C3CCOCC3)CC2)cc2c(c1F)c(=O)c1c3ccc(C#N)cc3[nH]c1n2C(C)C [compound 2, 1-fluoro-2-isopropoxy-5-isopropyl-11-oxo-3-(4-(tetrahydro-2H-pyran-4-yl)piperazin-1-yl)-6,11-dihydro-5H-indolo[2,3-b]quinoline-8-carbonitrile]",1.5 nM
3,"CC(C)Oc1c(N2C[C@@H](C)N(C)[C@@H](C)C2)cc2c(c1F)c(=O)c1c3ccc(C#N)cc3[nH]c1n2C(C)C [compound 3, 1-fluoro-2-isopropoxy-5-isopropyl-11-oxo-3-(cis-3,4,5-trimethylpiperazin-1-yl)-6,11-dihydro-5H-indolo[2,3-b]quinoline-8-carbonitrile]",0.57 nM
4,"CC(C)Oc1c(N2CCN(C(C)C)CC2)cc2c(c1F)c(=O)c1c3ccc(C#N)cc3[nH]c1n2C(C)C [compound 4, 1-fluoro-2-isopropoxy-5-isopropyl-3-(4-isopropylpiperazin-1-yl)-11-oxo-6,11-dihydro-5H-indolo[2,3-b]quinoline-8-carbonitrile]",0.83 nM
5,"CC(C)Oc1c(N2CCN(C3COC3)CC2)cc2c(c1F)c(=O)c1c3ccc(C#N)cc3[nH]c1n2C(C)C [compound 5, 1-fluoro-2-isopropoxy-5-isopropyl-3-(4-(oxetan-3-yl)piperazin-1-yl)-11-oxo-6,11-dihydro-5H-indolo[2,3-b]quinoline-8-carbonitrile]",4.3 nM
6,"COc1c(N2CCN(C3COC3)CC2)cc2c(c1F)c(=O)c1c3ccc(C#N)cc3[nH]c1n2C(C)C [compound 6, 1-fluoro-5-isopropyl-2-methoxy-3-(4-(oxetan-3-yl)piperazin-1-yl)-11-oxo-6,11-dihydro-5H-indolo[2,3-b]quinoline-8-carbonitrile]",5.4 nM
7,"COc1c(N2CCN(C3CCOCC3)CC2)cc2c(c1F)c(=O)c1c3ccc(C#N)cc3[nH]c1n2C(C)C [compound 7, 1-fluoro-5-isopropyl-2-methoxy-11-oxo-3-(4-(tetrahydro-2H-pyran-4-yl)piperazin-1-yl)-6,11-dihydro-5H-indolo[2,3-b]quinoline-8-carbontrile]",1.4 nM
8,"COc1c(N2C[C@@H](C)N(C)[C@@H](C)C2)cc2c(c1F)c(=O)c1c3ccc(C#N)cc3[nH]c1n2C(C)C [compound 8, 1-fluoro-5-isopropyl-2-methoxy-11-oxo-3-(cis-3,4,5-trimethylpiperazin-1-yl)-6,11-dihydro-5H-indolo[2,3-b]quinoline-8-carbonitrile]",0.52 nM
9,"COCCOc1cc2c(=O)c3c4ccc(C#N)cc4[nH]c3n(C(C)C)c2c(F)c1N1CCN(C2CCOCC2)CC1 [compound 9, 4-fluoro-5-isopropyl-2-(2-methoxyethoxy)-11-oxo-3-(4-(tetrahydro-2H-pyran-4-yl)piperazin-1-yl)-6,11-dihydro-5H-indolo[2,3-b]quinoline-8-carbonitrile (TFA salt)]",54.4 nM
10,"COCCOc1cc2c(=O)c3c4ccc(C#N)cc4[nH]c3n(C(C)C)c2c(F)c1N1C[C@@H](C)N(C)[C@@H](C)C1 [compound 10, 4-f1uoro-5-isopropyl-2-(2-methoxyethoxy)-11-oxo-3-(cis-3,4,5-trimethylpiperazin-1-yl)-6,11-dihydro-5H-indolo[2,3-b]quinoline-8-carbonitrile (TFA salt)]",16.9 nM
11,"CC(C)Oc1cc2c(=O)c3c4ccc(C#N)cc4[nH]c3n(C(C)C)c2c(F)c1N1C[C@@H](C)N(C)[C@@H](C)C1 [compound 11, 4-fluoro-2-isopropoxy-5-isopropyl-11-oxo-(cis-3,4,5-trimethylpiperazin-1-yl)-6,11-dihydro-5H-indolo[2,3-b]quinoline-8-carbonitrile (TFA salt)]",7.8 nM
